{"source": "patent US9370503B1", "about": "“Compounds for treating ocular diseases” (priority 2015, dated 2016)", "key": {"ARPE-19 cells [1]": {"test_system": "ARPE-19 cells", "assay": "NaIO3-induced injury in ARPE-19 cells (MTT)", "assay_type": "cell-based, human", "conditions": "72 h", "method": "(§1) ARPE-19 cells were grown in DMEM/F12 medium supplemented with 10% FBS, 100 units/ml penicillin G, and 100 μg/ml streptomycin sulfate. HUVECs were grown in vascular cell basal medium supplemented with endothelial cell growth kit. Cells were incubated in a humidified incubator at 37° C. under 5% CO2 and 95% air.\n(§2) MTT assay was used to measure the viability of ARPE-19 cells and HUVECs. 2×10^5 ARPE-19 cells or 5×10^4 HUVECs were seeded in 96-well plates (100 μl/well) and allowed to grow overnight. Negative control was prepared by adding 100 μl medium without cells. The cells were then treated with fresh medium with a compound of Formula (II) (“(II)”) (0.03, 0.1, 0.3, 1, 3 and 10 μg/ml) and/or oxidants (NaIO3, H2O2, t-BHP and NaN3) for 12, 24, or 72 hours (200 μl/well). The vehicle control group was treated with vehicle. 20 μl MTT (5 mg/ml) was added to wells, and incubated for another 4 h. After incubation, the medium was discarded and 100 μl DMSO was added to solubilize formazan produced from MTT by the viable cells. Absorbance was measured at 570 nm using a microplate reader (Bio-Rad Laboratories, Inc., CA). Cells viability was calculated according to the following formula: Viability of cells (%)=(absorbance in tested sample−absorbance in negative control)/(absorbance in vehicle control−absorbance in negative control)×100%."}, "HUVECs [2]": {"test_system": "HUVECs", "assay": "H2O2-induced injury in HUVECs (MTT)", "assay_type": "cell-based, human", "conditions": "24 hours; for enhancement of H2O2-induced injury in HUVECs: 10 μg/ml compound", "method": "as §1, §2"}, "ARPE-19 cells [3]": {"test_system": "ARPE-19 cells", "assay": "t-BHP-induced injury in ARPE-19 cells (MTT)", "assay_type": "cell-based, human", "conditions": "12 hours", "method": "as §1, §2"}, "HUVECs [4]": {"test_system": "HUVECs", "assay": "t-BHP-induced injury in HUVECs (MTT)", "assay_type": "cell-based, human", "conditions": "12 hours", "method": "as §1, §2"}, "[5]": {"test_system": "NaIO3 induced dry AMD rat model", "assay": "NaIO3 induced dry AMD rat model, c-wave of ERG", "assay_type": "in vivo", "conditions": "1% eye drops 3 times a day, 35 mg/kg NaIO3, BN rats", "method": "A total of thirty 8-week-old male Brown-Norway (BN) rats were randomly divided into 3 groups, 10 rats in normal group, 10 rats in NaIO3 group and 10 rats in (II)+NaIO3 group. Control group was instilled with solvent (2-hydroxypropyl-β-cyclodextrin, Sigma-Aldrich) alone without NaIO3 injection. NaIO3 group was instilled with solvent plus 35 mg/kg NaIO3 injection through hypoglossal vein; whereas (II)+NaIO3 group was instilled with 1% (II) eye drops plus 35 mg/kg NaIO3 injection. Both eyes of all rats were instilled with 1 drop for 3 times a day for 1 week before and 4 weeks after NaIO3 injection. At the end of 2 and 4 weeks, RPE function was measured with c-wave of ERG.\nBN rats were dark adapted for 2 hours, and then anesthetized with ketamine 35 mg/kg plus xylazine 5 mg/kg i.m, Half of the initial dose was given each 1 hour thereafter. Pupils of all rats were dilated with one drop each of 1% atropine, and 2.5% phenylephrine. Before recording, one drop of 0.5% tetracaine was given for surface anesthesia. All rats were kept warm during ERG measurement. DC-ERG recording methods developed by Peachey were followed. […] Data were analyzed by iWORX LabScribe Data Recording Software (iWorxOCB Sciences, Dover, N.H.). […]"}}}
{"molecule": "CC(C)=CCC/C(C)=C/Cc1c([C@@H]2CC(=O)c3c(cc(O)c(CC=C(C)C)c3O)O2)ccc(O)c1O", "note": "[Formula (II)]", "values": [{"measurement": "effect on viability in NaIO3-induced injury in ARPE-19 cells", "setting": "ARPE-19 cells [1]; 30 μg/ml NaIO3, 0.03, 1, 3 and 10 μg/ml compound, P<0.05", "result": "significantly reversed"}, {"measurement": "reversal of viability in NaIO3-induced injury in ARPE-19 cells", "setting": "ARPE-19 cells [1]; 100 μg/ml NaIO3, 10 μg/ml compound", "result": 24, "unit": "%"}, {"measurement": "reversal of viability in NaIO3-induced injury in ARPE-19 cells", "setting": "ARPE-19 cells [1]; 300 μg/ml NaIO3, 3 μg/ml compound", "result": 7, "unit": "%"}, {"measurement": "enhancement of H2O2-induced injury in HUVECs", "setting": "HUVECs [2]; 200 μM H2O2", "result": 63, "unit": "%"}, {"measurement": "enhancement of H2O2-induced injury in HUVECs", "setting": "HUVECs [2]; 400 μM H2O2", "result": 42, "unit": "%"}, {"measurement": "effect on H2O2-induced injury in HUVECs", "setting": "HUVECs [2]; 0.3 and 1 μg/ml compound", "result": "reversed"}, {"measurement": "effect on t-BHP-induced injury in ARPE-19 cells", "setting": "ARPE-19 cells [3]", "result": "significantly reversed"}, {"measurement": "enhancement of t-BHP-induced injury in HUVECs", "setting": "HUVECs [4]; 50 μM t-BHP, 3 μg/ml compound", "result": 27, "unit": "%"}, {"measurement": "enhancement of t-BHP-induced injury in HUVECs", "setting": "HUVECs [4]; 50 μM t-BHP, 10 μg/ml compound", "result": 71, "unit": "%"}, {"measurement": "enhancement of t-BHP-induced injury in HUVECs", "setting": "HUVECs [4]; 100 μM t-BHP, 3 μg/ml compound", "result": 21, "unit": "%"}, {"measurement": "enhancement of t-BHP-induced injury in HUVECs", "setting": "HUVECs [4]; 100 μM t-BHP, 10 μg/ml compound", "result": 80, "unit": "%"}, {"measurement": "enhancement of t-BHP-induced injury in HUVECs", "setting": "HUVECs [4]; 200 μM t-BHP, 10 μg/ml compound", "result": 76, "unit": "%"}, {"measurement": "c-wave of ERG in NaIO3-treated rats", "setting": "[5]", "result": "markedly reverse"}, {"measurement": "reversal of NaIO3 induced dry AMD model (c-wave of ERG)", "setting": "[5]", "result": 4, "unit": "times"}]}
